Measurements from US20130137767A1, “Methods and Compositions for Treating Arthritis with Docosahexaenoic Acid” (DSM IP ASSETS B.V., priority 2010, published 2013).

Key:
Assay type in all cases: in vivo, Male DBA/1O1aHsd mice
[1] = CIA-EE (Example 1): serum phospholipid fatty acid levels by FAME analysis
Protocol: The appropriate ethyl esters were blended into the base diet to provide approximately 2500 and 5000 mg/kg polyunsaturated fatty acid (PUFA) per day. The human equivalent doses (HED) were approximately 12 g/day and 22 g/day, respectively. The 2500 mg/kg EE diets contained the following fat blend: 1 part flax, 12 parts HCOC and 23 parts HO-SAFF. The 5000 mg/kg EE diets contained a fat blend consisting of: 1 part flax, 5 parts HCOC and 20 parts HO-SAFF. All study diets provided a total of 7% fat. Animals were fed study diets for approximately 30 days prior to the first collagen injection at day 0 and remained on the diets until study termination (day 45). Animals in the No Disease control and Dexamethasone groups were fed the diet containing OA-EE. Following a second collagen injection on day 21, arthritis severity was scored daily. Blood samples were collected at day 21 and day 45. Joints, 6 per an animal, were collected for histology and pathology on day 45.
Serum phospholipid fatty acid levels were determined by FAME analysis (FIG. 5). Treatment with DHA-EE elevated serum DHA levels 3-4 fold, as compared the OA-EE (placebo) control, whereas DPAn6-EE elevated serum DPAn6 20-35 fold. Serum EPA levels were elevated when dosed with the DHA/EPA-EE blend 8-15 fold and 4-7 fold when dosed with DHA-EE, as compared to the OA-EE (placebo) control. […]

[2] = test system: anti-collagen antibodies; assay: CIA EE vs. TG (Example 2): serum anti-collagen antibodies; settings: for serum anti-collagen antibodies: day 21
Protocol: (§1) Male DBA/1O1aHsd mice were enrolled, quarantined, and feed study diets following the protocols described in Example 1 (CIA-EE Study). EE and TG oils were blended into the base diet to provide 2500 mg/kg PUFA per day (HED approximately 12 g/day). A single dose of PUFA per day (HED approximately 5 g/day). The 1000 mg/kg DHA-EE dose was equivalent to the amount of DHA administered in the DHA/EPA-EE blend. The fat blend the 2500 mg/kg EE diets consisted of approximately: 1 part flax, 12 parts HCOC and 23 parts HO-SAFF; 1000 mg/kg EE diet: 1 part flax, 12 parts HCOC and 32 parts HO-SAFF; 2500 mg/kg DHASCO® oil diet: 1 part flax, 8 parts HCOC, 17 parts HO-SAFF and 15 parts soybean oil; 2500 mg/kg DHA-S oil diet: 1 part flax, 5 parts HCOC, 16 parts HO-SAFF and 6 parts soybean oil. 2500 mg/kg DHA/EPA (Nordic Naturals fish oil) diet: 1 part flax, 21 parts HCOC, 18 parts HO-SAFF and 13 parts soybean oil. The monounsaturate control animals received a fat blend of 1 part flax, 7 parts HCOC and 25 parts HO-SAFF. All study diets provided a total of 7% fat. Animals in the No Disease control and Dexamethasone groups were fed the diet containing OA-EE. Mice received collagen injections on day 0 and day 21, as described previously. Blood samples were collected at day 21 and day 45. At day 45, joints were collected for histology and pathology.
A reduction in serum anti-collagen antibodies also correlated with a reduction in disease severity. […] (FIG. 12).

[3] = CIA EE vs. TG (Example 2): serum phospholipid fatty acid levels by FAME analysis
Protocol: as §1
Serum phospholipid fatty acid levels were determined by FAME analysis (FIG. 11). Treatment with DHASCO® or DHA-S oil elevated serum DHA levels 3-4 fold (p<0.001), as compared to the monounsaturated (placebo) control. DHA-EE treatment elevated DHA levels 3-5 fold (p<0.001), as compared to the OA-EE (placebo) control. DPAn6-TG and EE elevated DPAn6 levels 3-4 fold (p<0.001), as compared to the monounsaturated or OA-EE (placebo) control. Serum EPA levels were elevated approximately 30 fold (p<0.001) when fish oil or DHA/EPA-EE was administered, as compared to the monounsaturated or OA-EE (placebo) control. Serum EPA levels were also elevated by treatment with DHASCO® (p<0.001), DHA-S (p<0.05), or with DHA-EE (p<0.001), as compared to the monounsaturated or OA-EE (placebo) control. […] Treatment with either DHASCO® or DHA-EE (2500 mg/kg) reduced ARA levels by approximately 90% (p<0.001), as compared to the monounsaturated or OA-EE (placebo) control. […] Serum ARA levels were reduced to a lesser degree by DHA-S (24%, p<0.001), fish oil (37%, p<0.001) and DHA/EPA-EE (49%, p<0.001), as compared to the monounsaturated or OA-EE (placebo) control. Data shown represents 3 pooled animals per group. Means±SD. *p<0.05 ***p<0.001.

serum EPA levels, elevation vs monounsaturated or OA-EE (placebo) control ([3]; 2500 mg/kg PUFA (DHA-EE dose not stated)): elevated
serum DHA levels, elevation vs OA-EE (placebo) control ([3]; dose not stated (1000 and 2500 mg/kg tested)): 3-5 fold
Structure (SMILES): CC/C=C\C/C=C\C/C=C\C/C=C\C/C=C\C/C=C\CCC(=O)OCC [DHA-EE]
serum ARA levels, decrease vs OA-EE (placebo) control ([1]; 2500 mg/kg): approximately 90%
serum ARA levels, decrease vs OA-EE (placebo) control ([1]; 5000 mg/kg): approximately 90%
serum anti-collagen antibodies ([2]; 1000 mg/kg): significantly reduced
serum anti-collagen antibodies ([2]; 2500 mg/kg PUFA, FIG. 12): significantly reduced
serum anti-collagen antibody levels ([2]; day 45, 2500 mg/kg PUFA, FIG. 12): significantly reduced
serum ARA levels, reduction vs OA-EE (placebo) control ([3]; 1000 mg/kg): 77%
serum ARA levels, reduction vs monounsaturated or OA-EE (placebo) control ([3]; 2500 mg/kg PUFA): approximately 90%
